# Assays:
# SM1 tumors = assay: Immunodepletion mouse model (CD4+ or CD8+ T cell depletion), SM1; format: in vivo, C57BL6 mice; conditions: CD4+ but not CD8+T cell depletion
# Text: Total TILs were gated first to single cells (based on forward scatter height vs width, followed by side scatter height vs. width). Live cells were gated from the Zombie negative population from the population above. TILs were gated based on splenocyte size from a control spleen. Individual immune subpopulations were sub-gated from the total TIL population using the following staining criteria: CD3+ for CD3+ T cells; CD3+/CD4+/CD8− for CD4+T cells; CD3+/CD4−/CD8+ for CD8+ T cells, CD11c+/CD11b+ for DCs; either NK1.1 (for C57/BL6 mice) or DX5 (for C3H/HeJ) for NK cells; CD11b+/GR1+ for MDSC-like cells; and F4/80+ for macrophages. Single-cell suspensions from tumor and spleen tissue were stained with Live/Dead Zombie NIR (Biolegend, (San Diego, CA)) at 1:1,000 in PBS for 20 min. Cell suspensions were spun down and stained with the following with antibodies at 0.5 μg/ml per antibody: APC anti-mouse CD3, Pacific Blue anti-mouse CD4, BV785 anti-mouse CD8, PerCP anti-mouse CD25, FITC anti-mouse F4/80, PeCy7 anti-mouse CD11c, PE anti-mouse NK1.1 or PE anti-mouse DX5, and PerCP-Cy5.5 anti-mouse CD11 b. After staining, the cells were washed and fixed (2% formaldehyde), followed by another wash and flow cytometric analysis. The compensation controls were prepared using 0.5 μg/mL of each antibody with UltraComp eBeads, (ThermoFisher Scientific (Waltham, MA)). […]
# SW1 tumors = assay: Anti-PD-1 mouse model, SW1; format: in vivo, C3H/HeN mice
# Text: FIGS. 21A and 21B Administration of combination L-fucose and anti-PD-1 suppresses tumors and increases intra-tumoral CD4+T central and effector memory cells (a) Volumetric growth curves for SW1 tumors in C3H/HeN mice (left) and SM1 tumors in C57BL/6 mice (right) fed L-fucose (LF) and treated with PBS (control) or anti-PD-1. (concurrent initiation of LF anti-PD1 (▾)). The tumor growth curves are means±SEM from ≥7 mice per group. (b) Volumetric growth curves for SM1 tumors in C57BL/6 mice fed ±L-fucose (LF) and treated with PBS (control) or anti-PD-1 (PD-1). (concurrent initiation of LF±PD1 (▾)). The tumor growth curves are means±SEM from ≥7 mice per group. *=p<0.05. At Day 7 (prior to administration of LF or PD1), Day 21 (endpoint for tumors of control-treated mice), Day 31 (endpoint for tumors of LF-treated mice), Day 63 (endpoint for tumors of PD1-treated mice), the primary tumors (Tumor) and draining lymph nodes (LN) of 4-5 mice per treatment group were analyzed by flow cytometry for intratumor levels of CD4+ and CD8+T subpopulations (naive/terminal, stem central/central/effector memory) and dendritic cell (DC) subpopulations (cDC1, cDC2, and monocyte-derived DC (moDC)) as in FIG. 15. Proportions of CD4+, CD8+, and DC subpopulations in each organ at each timepoints are represented by the color-coded pie charts (each pie chart represents 4-5 mice). […]
# TUBO (mouse BC) = assay: TUBO breast cancer growth and TILs in immunocompetent mice, L-fuc dose escalation; format: in vivo, Balb/C mice; conditions: for TUBO tumor growth: immunocompetent Balb/C mice, L-fuc dose escalation (FIG. 3B)
compound,measurement,setting,value
C[C@H](O)[C@@H](O)[C@@H](O)[C@H](O)C=O [L-fucose],L-fuc-triggered tumor suppression and increases in total itICs,SM1 tumors,abrogated
same,efficacy of anti-PD1 in combination with oral L-fuc,SW1 tumors,did not enhance
same,fold-change in TIL subsets: MDSCs,"TUBO (mouse BC); 500 vs. 0 mM L-fuc, TUBO tumors (FIG. 3D)",3.1 fold
same,number of TILs/g tumor,TUBO (mouse BC); FIG. 3C,increased
same,fold increase in TIL subsets: CD4 T cells,TUBO (mouse BC); following L-fucose administration (FIG. 3D),3.1 fold
same,TUBO tumor growth,TUBO (mouse BC),dose dependent decrease
same,TUBO tumor growth,TUBO (mouse BC); listed as L-fuc,suppresses
